Assay results: the NIST ThermoML archive (doi:10.1021/je050020m)
± gives the expanded uncertainty stated by the source.

Test: xn = mol fraction of the nth substance listed
Details: Liquid, Vibrating tube method

Structure (SMILES): CCCCCCCCCC [decane] + O=C=O
- mass density (323.05 K, 14026 kPa, x2 = 0.0551): 721.01 ± 0.59 kg/m3
- mass density (323.05 K, 15008 kPa, x2 = 0.0551): 721.76 ± 0.6 kg/m3
- mass density (323.05 K, 16035 kPa, x2 = 0.0551): 722.62 ± 0.6 kg/m3
- mass density (323.05 K, 17008 kPa, x2 = 0.0551): 723.4 ± 0.61 kg/m3
- mass density (323.05 K, 18019 kPa, x2 = 0.0551): 724.22 ± 0.61 kg/m3
- mass density (323.05 K, 18994 kPa, x2 = 0.0551): 724.89 ± 0.61 kg/m3
- mass density (323.05 K, 20009 kPa, x2 = 0.0551): 725.73 ± 0.62 kg/m3
- mass density (323.05 K, 21010 kPa, x2 = 0.0551): 726.47 ± 0.62 kg/m3
- mass density (323.05 K, 21987 kPa, x2 = 0.0551): 727.22 ± 0.63 kg/m3
- mass density (323.05 K, 23060 kPa, x2 = 0.0551): 728.04 ± 0.63 kg/m3
- mass density (323.05 K, 23980 kPa, x2 = 0.0551): 728.74 ± 0.64 kg/m3
- mass density (323.05 K, 25055 kPa, x2 = 0.0551): 729.61 ± 0.64 kg/m3
- mass density (323.06 K, 5014 kPa, x2 = 0.2369): 719.6 ± 0.52 kg/m3
- mass density (323.06 K, 6022 kPa, x2 = 0.2369): 720.66 ± 0.52 kg/m3
- mass density (323.06 K, 7021 kPa, x2 = 0.2369): 721.73 ± 0.53 kg/m3
- mass density (323.06 K, 7029 kPa, x2 = 0.4536): 732.05 ± 0.49 kg/m3
- mass density (323.06 K, 8017 kPa, x2 = 0.4536): 733.42 ± 0.49 kg/m3
- mass density (323.06 K, 8020 kPa, x2 = 0.2369): 722.8 ± 0.53 kg/m3
- mass density (323.06 K, 9010 kPa, x2 = 0.2369): 723.79 ± 0.54 kg/m3
- mass density (323.06 K, 9018 kPa, x2 = 0.4536): 734.79 ± 0.56 kg/m3
- mass density (323.06 K, 10024 kPa, x2 = 0.4536): 736.13 ± 0.52 kg/m3
- mass density (323.06 K, 10030 kPa, x2 = 0.2369): 724.84 ± 0.54 kg/m3
- mass density (323.06 K, 11018 kPa, x2 = 0.2369): 725.81 ± 0.54 kg/m3
- mass density (323.06 K, 11019 kPa, x2 = 0.4536): 737.41 ± 0.51 kg/m3
- mass density (323.06 K, 12021 kPa, x2 = 0.2369): 726.78 ± 0.55 kg/m3
- mass density (323.06 K, 12025 kPa, x2 = 0.4536): 738.69 ± 0.51 kg/m3
- mass density (323.06 K, 13001 kPa, x2 = 0.2369): 727.75 ± 0.55 kg/m3
- mass density (323.06 K, 13003 kPa, x2 = 0.4536): 739.89 ± 0.51 kg/m3
- mass density (323.06 K, 14021 kPa, x2 = 0.2369): 728.7 ± 0.56 kg/m3
- mass density (323.06 K, 14027 kPa, x2 = 0.4536): 741.16 ± 0.52 kg/m3
- mass density (323.06 K, 15001 kPa, x2 = 0.4536): 742.33 ± 0.52 kg/m3
- mass density (323.06 K, 15014 kPa, x2 = 0.2369): 729.63 ± 0.56 kg/m3
- mass density (323.06 K, 16010 kPa, x2 = 0.2369): 730.54 ± 0.56 kg/m3
- mass density (323.06 K, 16024 kPa, x2 = 0.4536): 743.53 ± 0.53 kg/m3
- mass density (323.06 K, 17006 kPa, x2 = 0.2369): 731.46 ± 0.57 kg/m3
- mass density (323.06 K, 17010 kPa, x2 = 0.4536): 744.68 ± 0.53 kg/m3
- mass density (323.06 K, 18028 kPa, x2 = 0.2369): 732.36 ± 0.57 kg/m3
- mass density (323.06 K, 18030 kPa, x2 = 0.4536): 745.84 ± 0.53 kg/m3
- mass density (323.06 K, 19000 kPa, x2 = 0.4536): 746.93 ± 0.54 kg/m3
- mass density (323.06 K, 19016 kPa, x2 = 0.2369): 733.24 ± 0.58 kg/m3
- mass density (323.06 K, 20015 kPa, x2 = 0.2369): 734.11 ± 0.58 kg/m3
- mass density (323.06 K, 20028 kPa, x2 = 0.4536): 748.09 ± 0.54 kg/m3
- mass density (323.06 K, 21001 kPa, x2 = 0.4536): 749.17 ± 0.55 kg/m3
- mass density (323.06 K, 21027 kPa, x2 = 0.2369): 735 ± 0.59 kg/m3
- mass density (323.06 K, 22020 kPa, x2 = 0.4536): 750.24 ± 0.55 kg/m3
- mass density (323.06 K, 22023 kPa, x2 = 0.2369): 735.85 ± 0.59 kg/m3
- mass density (323.06 K, 23012 kPa, x2 = 0.4536): 751.33 ± 0.56 kg/m3
- mass density (323.06 K, 23022 kPa, x2 = 0.2369): 736.71 ± 0.6 kg/m3
- mass density (323.06 K, 24006 kPa, x2 = 0.2369): 737.58 ± 0.6 kg/m3
- mass density (323.06 K, 24021 kPa, x2 = 0.4536): 752.42 ± 0.56 kg/m3
- mass density (323.06 K, 25004 kPa, x2 = 0.2369): 738.42 ± 0.61 kg/m3
- mass density (323.06 K, 25029 kPa, x2 = 0.4536): 753.51 ± 0.57 kg/m3
- mass density (332.91 K, 12008 kPa, x2 = 0.8114): 740.55 ± 1.9 kg/m3
- mass density (332.91 K, 13051 kPa, x2 = 0.8114): 744.82 ± 0.5 kg/m3
- mass density (332.91 K, 14018 kPa, x2 = 0.8114): 748.57 ± 0.5 kg/m3
- mass density (332.91 K, 15048 kPa, x2 = 0.8114): 752.37 ± 0.5 kg/m3
- mass density (332.91 K, 15985 kPa, x2 = 0.8114): 755.64 ± 0.5 kg/m3
- mass density (332.91 K, 17015 kPa, x2 = 0.8114): 759.04 ± 0.5 kg/m3
- mass density (332.91 K, 18008 kPa, x2 = 0.8114): 762.27 ± 0.5 kg/m3
- mass density (332.91 K, 19002 kPa, x2 = 0.8114): 765.33 ± 0.5 kg/m3
- mass density (332.91 K, 20017 kPa, x2 = 0.8114): 768.38 ± 0.5 kg/m3
- mass density (332.91 K, 21018 kPa, x2 = 0.8114): 771.25 ± 0.51 kg/m3
- mass density (332.91 K, 22044 kPa, x2 = 0.8114): 774.13 ± 0.51 kg/m3
- mass density (332.91 K, 23040 kPa, x2 = 0.8114): 776.83 ± 0.51 kg/m3
- mass density (332.91 K, 24008 kPa, x2 = 0.8114): 779.4 ± 0.51 kg/m3
- mass density (332.91 K, 25047 kPa, x2 = 0.8114): 782.09 ± 0.52 kg/m3
- mass density (332.94 K, 1997 kPa, x2 = 0.0551): 702.61 ± 0.55 kg/m3
